Results from publication PMC8620242 (Journal of Advanced Research, 2021).

Columns and labels:
[1] = molecular target: SARS-CoV-2 spike protein (Severe acute respiratory syndrome coronavirus 2, UniProt P0DTC2); experiment: biochemical; type: binding
[2] = system: SARS-CoV-2 pseudovirus; type: cell-based
[3] = molecular target: nsp7 (Severe acute respiratory syndrome coronavirus 2, UniProt P0DTD1); experiment: biochemical; type: binding, SARS-CoV-2
[4] = in vivo; settings: male, Sprague-Dawley, rat, po, 40 mg/kg
[5] = molecular target: nsp8 (Severe acute respiratory syndrome coronavirus 2, UniProt P0DTD1); experiment: biochemical; type: binding, SARS-CoV-2
[6] = molecular target: RBD of SARS-CoV-2 spike protein (Severe acute respiratory syndrome coronavirus 2, UniProt P0DTC2); experiment: biochemical; type: binding
[7] = in vivo; design: species or system rats; settings: male, Sprague-Dawley, rat, po, 40 mg/kg
[8] = male, Sprague-Dawley, rat, in vivo
[9] = system: Vero E6 cells; type: cell-based; settings: CCK-8
[10] = molecular target: ACE2; settings: read-out: KD for binding to ACE2; cited from earlier work

## CC1(C)[C@@H](O)CC[C@]2(C)[C@H]3C(=O)C=C4[C@@H]5C[C@@](C)(C(=O)O)CC[C@]5(C)CC[C@@]4(C)[C@]3(C)CC[C@@H]12 [GA, glycyrrhetinic acid]
[1]
  IC50: 10.9 µM
[1]; read-out: inhibition rate against SARS-CoV-2 spike protein by ELISA
  inhibition at 10 µM: 51.9%
[2]
  inhibitory activity in blocking, attachment and entry procedures: significant inhibitory activities
[3]
  Kd: 384 µM
[4]
  half-life: 595 min
[5]
  Kd: 91.2 µM
[6]
  Kd: 2330 nM
[7]
  Tmax: 2 h
  half-life: 1090 min
[8]
  maximum plasma concentration: 5.68 µM

## CC1(C)[C@@H](O[C@H]2O[C@H](C(=O)O)[C@@H](O)[C@H](O)[C@H]2O[C@@H]2O[C@H](C(=O)O)[C@@H](O)[C@H](O)[C@H]2O)CC[C@]2(C)[C@H]3C(=O)C=C4[C@@H]5C[C@@](C)(C(=O)O)CC[C@]5(C)CC[C@@]4(C)[C@]3(C)CC[C@@H]12 [GA-gg, glycyrrhizic acid]
[2]
  activity in the pseudovirus system: weak activities
[6]; SPR
  binding to RBD: very weak bindings
[8]
  maximum plasma concentration: 10.23 µM

## C=C(C)[C@@H]1CC[C@]2(C(=O)O)CC[C@]3(C)[C@H](CC[C@@H]4[C@@]5(C)CC[C@H](O)C(C)(C)[C@@H]5CC[C@]43C)[C@@H]12 [betulinic acid]
[1]
  IC50: 15.1 µM
[9]
  cytotoxicity: remarkable cytotoxicity

## C[C@H]1[C@H](C)CC[C@]2(C(=O)O)CC[C@]3(C)C(=CC[C@@H]4[C@@]5(C)CC[C@H](O)C(C)(C)[C@@H]5CC[C@]43C)[C@H]12 [ursolic acid]
[1]
  IC50: 9 µM
[9]
  cytotoxicity: remarkable cytotoxicity

## dalbavacin
[10]
  Kd: 147 nM
